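96-well plates; 48 h exposure; 5 concentrations. Endpoints by linear interpolation between flanking doses. Not reached: highest tested concentration assigned. GI50 = concentration required for 50% inhibition of growth.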 Active and inactive are the calls of the source. Cut-off read from the data, not from the text of the source: active = GI50 up to about 1.1 µM and inactive = higher.
Experiments:
Assay in all cases: growth of human tumour cells (NCI), 48 h
786-0 = tested on: 786-0
NCI-H23 = tested on: NCI-H23
SK-MEL-5 = tested on: SK-MEL-5
NCI-H226 = tested on: NCI-H226
HCT-15 = tested on: HCT-15
HCC 2998 = tested on: HCC 2998
DU-145 = tested on: DU-145
RPMI-8226 = tested on: RPMI-8226
SK-MEL-2 = tested on: SK-MEL-2
U-251 = tested on: U-251
Malme-3M = tested on: Malme-3M
MDA-MB-435 = tested on: MDA-MB-435
BT-549 = tested on: BT-549
CAKI-1 = tested on: CAKI-1
ACHN = tested on: ACHN
NCI-H460 = tested on: NCI-H460
NCI-H522 = tested on: NCI-H522
HT-29 = tested on: HT-29
MCF7 = tested on: MCF7
SK-MEL-28 = tested on: SK-MEL-28
KM12 = tested on: KM12
PC-3 = tested on: PC-3
MDA-MB-231 = tested on: MDA-MB-231
Hs-578T = tested on: Hs-578T
HOP-62 = tested on: HOP-62
UACC-257 = tested on: UACC-257
SNB-75 = tested on: SNB-75
HOP-92 = tested on: HOP-92
IGROV-1 = tested on: IGROV-1
A498 = tested on: A498
OVCAR-4 = tested on: OVCAR-4
UACC-62 = tested on: UACC-62
SR = tested on: SR
SNB-19 = tested on: SNB-19
SF-539 = tested on: SF-539
SF-268 = tested on: SF-268
SW-620 = tested on: SW-620
A549 = tested on: A549
LOX IMVI = tested on: LOX IMVI
SF-295 = tested on: SF-295
HCT-116 = tested on: HCT-116
UO-31 = tested on: UO-31
HL-60 = tested on: HL-60
RXF 393 = tested on: RXF 393
COLO 205 = tested on: COLO 205
NCI/ADR-RES = tested on: NCI/ADR-RES
SK-OV-3 = tested on: SK-OV-3
SN12C = tested on: SN12C
M14 = tested on: M14
OVCAR-3 = tested on: OVCAR-3
OVCAR-8 = tested on: OVCAR-8
MDA-N = tested on: MDA-N
TK-10 = tested on: TK-10
T47D = tested on: T47D
MOLT-4 = tested on: MOLT-4
OVCAR-5 = tested on: OVCAR-5
EKVX = tested on: EKVX
CCRF-CEM = tested on: CCRF-CEM
K562 = tested on: K562

## O=C(CC(C(=O)c1cccs1)c1ccc2c(c1)OCO2)c1ccccc1 (centres undefined)
786-0
  GI50: > 100 µM (inactive)
NCI-H23
  GI50: > 100 µM (inactive)
SK-MEL-5
  GI50: > 100 µM (inactive)
NCI-H226
  GI50: > 100 µM (inactive)
HCT-15
  GI50: > 100 µM
HCC 2998
  GI50: > 100 µM (inactive)
DU-145
  GI50: > 100 µM (inactive)
RPMI-8226
  GI50: > 100 µM (inactive)
SK-MEL-2
  GI50: > 100 µM (inactive)
U-251
  GI50: > 100 µM (inactive)
Malme-3M
  GI50: > 100 µM (inactive)
MDA-MB-435
  GI50: 80.4 µM (inactive)
BT-549
  GI50: > 100 µM (inactive)
CAKI-1
  GI50: > 100 µM (inactive)
ACHN
  GI50: > 100 µM (inactive)
NCI-H460
  GI50: 46.7 µM (inactive)
NCI-H522
  GI50: > 100 µM (inactive)
HT-29
  GI50: > 100 µM (inactive)
MCF7
  GI50: > 100 µM (inactive)
SK-MEL-28
  GI50: > 100 µM (inactive)
KM12
  GI50: > 100 µM (inactive)
PC-3
  GI50: > 100 µM (inactive)
MDA-MB-231
  GI50: > 100 µM (inactive)
Hs-578T
  GI50: > 100 µM (inactive)
HOP-62
  GI50: > 100 µM (inactive)
UACC-257
  GI50: > 100 µM (inactive)
SNB-75
  GI50: > 100 µM (inactive)
HOP-92
  GI50: > 100 µM (inactive)
IGROV-1
  GI50: > 100 µM (inactive)
A498
  GI50: > 100 µM (inactive)
OVCAR-4
  GI50: > 100 µM (inactive)
UACC-62
  GI50: > 100 µM (inactive)
SR
  GI50: 70.1 µM (inactive)
SNB-19
  GI50: > 100 µM (inactive)
SF-539
  GI50: > 100 µM (inactive)
SF-268
  GI50: > 100 µM (inactive)
SW-620
  GI50: > 100 µM (inactive)
A549
  GI50: > 100 µM (inactive)
LOX IMVI
  GI50: > 100 µM (inactive)
SF-295
  GI50: > 100 µM (inactive)
HCT-116
  GI50: 50.5 µM (inactive)
UO-31
  GI50: > 100 µM (inactive)
HL-60
  GI50: 58.9 µM (inactive)
RXF 393
  GI50: > 100 µM (inactive)
COLO 205
  GI50: > 100 µM (inactive)
NCI/ADR-RES
  GI50: > 100 µM (inactive)
SK-OV-3
  GI50: > 100 µM (inactive)
SN12C
  GI50: > 100 µM (inactive)
M14
  GI50: 73.8 µM (inactive)
OVCAR-3
  GI50: > 100 µM (inactive)
OVCAR-8
  GI50: > 100 µM (inactive)
MDA-N
  GI50: > 100 µM (inactive)
TK-10
  GI50: 19.6 µM (inactive)
T47D
  GI50: 52.7 µM (inactive)

## COc1ccc(C(OCC2OC(n3cc(C)c(=O)[nH]c3=O)CC2n2cc(Cn3cc(F)c(=O)[nH]c3=O)nn2)(c2ccccc2)c2ccccc2)cc1 (centres undefined)
786-0
  GI50: 3.67 µM (inactive)
NCI-H23
  GI50: 8.28 µM (inactive)
SK-MEL-5
  GI50: 7.82 µM (inactive)
NCI-H226
  GI50: 4.42 µM (inactive)
HCT-15
  GI50: 4.5 µM
HCC 2998
  GI50: 3.31 µM (inactive)
DU-145
  GI50: 6.44 µM (inactive)
RPMI-8226
  GI50: 3.04 µM (inactive)
SK-MEL-2
  GI50: 6.31 µM (inactive)
U-251
  GI50: 3.78 µM (inactive)
Malme-3M
  GI50: 9.04 µM (inactive)
MDA-MB-435
  GI50: 1.75 µM (inactive)
BT-549
  GI50: 11.1 µM (inactive)
CAKI-1
  GI50: 8.38 µM (inactive)
ACHN
  GI50: 10.8 µM (inactive)
MOLT-4
  GI50: 4.54 µM (inactive)
NCI-H522
  GI50: 3.77 µM (inactive)
OVCAR-5
  GI50: 10.4 µM (inactive)
HT-29
  GI50: 6.28 µM (inactive)
MCF7
  GI50: 3.54 µM (inactive)
SK-MEL-28
  GI50: 11.3 µM (inactive)
KM12
  GI50: 4.25 µM (inactive)
PC-3
  GI50: 4.33 µM (inactive)
MDA-MB-231
  GI50: 2.69 µM (inactive)
Hs-578T
  GI50: 6.97 µM (inactive)
HOP-62
  GI50: 4.1 µM (inactive)
UACC-257
  GI50: 11.5 µM (inactive)
SNB-75
  GI50: 12.6 µM (inactive)
HOP-92
  GI50: 2.62 µM (inactive)
IGROV-1
  GI50: 7.96 µM (inactive)
A498
  GI50: 10.1 µM (inactive)
OVCAR-4
  GI50: 16.4 µM (inactive)
UACC-62
  GI50: 11 µM (inactive)
SR
  GI50: 2.51 µM (inactive)
SNB-19
  GI50: 6.07 µM (inactive)
SF-539
  GI50: 4.23 µM (inactive)
SF-268
  GI50: 5.06 µM (inactive)
EKVX
  GI50: 5.65 µM (inactive)
SW-620
  GI50: 3.72 µM (inactive)
A549
  GI50: 4.1 µM (inactive)
LOX IMVI
  GI50: 4.38 µM (inactive)
SF-295
  GI50: 3.26 µM (inactive)
HCT-116
  GI50: 3.38 µM (inactive)
UO-31
  GI50: 9.73 µM (inactive)
HL-60
  GI50: 2.63 µM (inactive)
RXF 393
  GI50: 10.6 µM (inactive)
COLO 205
  GI50: 4.97 µM (inactive)
NCI/ADR-RES
  GI50: 31.6 µM (inactive)
SK-OV-3
  GI50: 5.3 µM (inactive)
SN12C
  GI50: 5.71 µM (inactive)
M14
  GI50: 4.58 µM (inactive)
OVCAR-3
  GI50: 5.26 µM (inactive)
OVCAR-8
  GI50: 9.57 µM (inactive)
MDA-N
  GI50: 1.54 µM (inactive)
TK-10
  GI50: 13.6 µM (inactive)
T47D
  GI50: 5.71 µM (inactive)
CCRF-CEM
  GI50: 2.56 µM (inactive)

## Fc1ccc(NC(=S)SCc2ccc3c(c2)OCO3)cc1F
786-0
  GI50: 37.2 µM (inactive)
NCI-H23
  GI50: 20.7 µM (inactive)
SK-MEL-5
  GI50: 16 µM (inactive)
NCI-H226
  GI50: 37.7 µM (inactive)
HCT-15
  GI50: 17.2 µM
HCC 2998
  GI50: 21.8 µM (inactive)
DU-145
  GI50: 31.6 µM (inactive)
SK-MEL-2
  GI50: 18.3 µM (inactive)
U-251
  GI50: 17.4 µM (inactive)
Malme-3M
  GI50: 24.4 µM (inactive)
MDA-MB-435
  GI50: 20.6 µM (inactive)
BT-549
  GI50: 21.1 µM (inactive)
CAKI-1
  GI50: 27.7 µM (inactive)
ACHN
  GI50: 19.7 µM (inactive)
MOLT-4
  GI50: 18.7 µM (inactive)
NCI-H460
  GI50: 28 µM (inactive)
NCI-H522
  GI50: 16.8 µM (inactive)
OVCAR-5
  GI50: 11.1 µM (inactive)
HT-29
  GI50: 20.2 µM (inactive)
MCF7
  GI50: 18.7 µM (inactive)
SK-MEL-28
  GI50: 3.76 µM (inactive)
KM12
  GI50: 25.5 µM (inactive)
PC-3
  GI50: 25.5 µM (inactive)
MDA-MB-231
  GI50: 31.1 µM (inactive)
Hs-578T
  GI50: 26.9 µM (inactive)
HOP-62
  GI50: 39.5 µM (inactive)
UACC-257
  GI50: 21.1 µM (inactive)
SNB-75
  GI50: 20.6 µM (inactive)
HOP-92
  GI50: 23.2 µM (inactive)
K562
  GI50: 19.1 µM (inactive)
IGROV-1
  GI50: 18.6 µM (inactive)
A498
  GI50: 17.4 µM (inactive)
OVCAR-4
  GI50: 22.4 µM (inactive)
UACC-62
  GI50: 14.2 µM (inactive)
SR
  GI50: 17.4 µM (inactive)
SNB-19
  GI50: 16.6 µM (inactive)
SF-539
  GI50: 22.7 µM (inactive)
SF-268
  GI50: 21.2 µM (inactive)
EKVX
  GI50: 11.7 µM (inactive)
SW-620
  GI50: 33 µM (inactive)
A549
  GI50: 15.6 µM (inactive)
LOX IMVI
  GI50: 15.3 µM (inactive)
SF-295
  GI50: 18.4 µM (inactive)
HCT-116
  GI50: 49.3 µM (inactive)
UO-31
  GI50: 17 µM (inactive)
HL-60
  GI50: 16.7 µM (inactive)
RXF 393
  GI50: 15.5 µM (inactive)
COLO 205
  GI50: 18.9 µM (inactive)
NCI/ADR-RES
  GI50: 25.2 µM (inactive)
SK-OV-3
  GI50: 53.6 µM (inactive)
SN12C
  GI50: 16.3 µM (inactive)
M14
  GI50: 20.4 µM (inactive)
OVCAR-3
  GI50: 29.2 µM (inactive)
OVCAR-8
  GI50: 18.3 µM (inactive)
MDA-N
  GI50: 17.6 µM (inactive)
TK-10
  GI50: 30.1 µM (inactive)
T47D
  GI50: 10.8 µM (inactive)
CCRF-CEM
  GI50: 23.4 µM (inactive)

Source: ChEMBL document CHEMBL1201862, “PubChem BioAssay data set” (2004)
